melting point | Structure (SMILES)
245 to 246 °C | Cn1cc(-c2ccc3nc(NC(=O)c4ccc(C(C)(C)C)cc4)cn3n2)cn1 [Example 173, 4-tert-butyl-N-[6-(1-methyl-1H-pyrazol-4-yl)imidazo[1,2-b]pyridazin-2-yl]benzamide]
358 to 362 °C (dec.) | CC(C)(C)c1ccc(C(=O)Nc2cn3nc(-c4cn[nH]c4)ccc3n2)cc1 [Example 174, 4-tert-butyl-N-[6-(1H-pyrazol-4-yl)imidazo[1,2-b]pyridazin-2-yl]benzamide]
226 to 229 °C | CC(C)(C)c1ccc(C(=O)Nc2cn3nc(-c4cnn(CCO)c4)ccc3n2)cc1 [Example 178, 4-tert-butyl-N-{6-[1-(2-hydroxyethyl)-1H-pyrazol-4-yl]imidazo[1,2-b]pyridazin-2-yl}benzamide]
282 to 283 °C | Cc1cccc2nc(NC(=O)c3ccc(C(C)(C)C(=O)O)cc3)cn12 [Example 186, 2-methyl-2-{4-[(5-methylimidazo[1,2-a]pyridin-2-yl)carbamoyl]phenyl}propanoic acid]
260 °C | Cc1cccc2nc(NC(=O)c3ccc(C(C)(C)CCC(=O)O)cc3)cn12 [Example 187, 4-methyl-4-(4-{[(5-methylimidazo[1,2-a]pyridin-2-yl)amino]carbonyl}phenyl)pentanoic acid]
272 °C | Cc1cccc2nc(NC(=O)c3ccc(C4(C(=O)O)CCC4)cc3)cn12 [Example 188, 1-{4-[(5-methylimidazo[1,2-a]pyridin-2-yl)carbamoyl]phenyl}cyclobutanecarboxylic acid]
330 to 331 °C | O=C(Nc1cn2cc(Cl)ccc2n1)c1ccc(C2(C(=O)O)CC2)cc1 [Example 189, 1-{4-[(6-chloroimidazo[1,2-a]pyridin-2-yl)carbamoyl]phenyl}cyclopropanecarboxylic acid]
317.7 °C (dec.) | O=C(Nc1cn2cc(Cl)ccc2n1)c1ccc(C2(C(=O)O)CCC2)cc1 [Example 190, 1-{4-[(6-chloroimidazo[1,2-a]pyridin-2-yl)carbamoyl]phenyl}cyclobutanecarboxylic acid]
313 °C (dec.) | O=C(Nc1cn2cc(Cl)ccc2n1)c1ccc(C2(C(=O)O)CCCC2)cc1 [Example 191, 1-{4-[(6-chloroimidazo[1,2-a]pyridin-2-yl)carbamoyl]phenyl}cyclopentanecarboxylic acid]
288 °C | O=C(Nc1cn2cc(Cl)ccc2n1)c1ccc(C2(C(=O)O)CCCCC2)cc1 [Example 192, 1-(4-{[(6-chloroimidazo[1,2-a]pyridin-2-yl)amino]carbonyl}phenyl)cyclohexanecarboxylic acid]
229 to 230 °C | CC(C)(C)c1ccc(C(=O)Nc2cn3c(CO)cccc3n2)cc1 [Example 194, 4-tert-butyl-N-[5-(hydroxymethyl)imidazo[1,2-a]pyridin-2-yl]benzamide]
194 to 195 °C | Cc1ccc2nc(NC(=O)c3ccc(C(C)(C)CCC#N)cc3)cn2c1 [Example 438, 4-(3-cyano-1,1-dimethylpropyl)-N-(6-methylimidazo[1,2-a]pyridin-2-yl)benzamide]
227 to 228 °C | CC(C)(CCC#N)c1ccc(C(=O)Nc2cn3c4c(ccc3n2)OCC4)cc1 [Example 441, 4-(3-cyano-1,1-dimethylpropyl)-N-(1,2-dihydrofuro[2,3-e]imidazo[1,2-a]pyridin-7-yl)benzamide]
228 to 229 °C | CC(C)(CNC(=O)C(O)CO)c1ccc(C(=O)Nc2cn3cc(Cl)ccc3n2)cc1 (stereo not shown) [Example 450, N-(6-chloroimidazo[1,2-a]pyridin-2-yl)-4-[2-(glyceroylamino)-1,1-dimethylethyl]benzamide]
234 to 235 °C | CC(C)(C)c1ccc(C(=O)Nc2cn3cc(C(F)(F)F)ccc3n2)cc1 [Example 452, 4-tert-butyl-N-[6-(trifluoromethyl)imidazo[1,2-a]pyridin-2-yl]benzamide]
198 to 199 °C | CC(C)(C(=O)NCC(O)CO)c1ccc(C(=O)Nc2cn3cc(Cl)ccc3n2)cc1 (stereo not shown) [Example 454, N-(6-chloroimidazo[1,2-a]pyridin-2-yl)-4-{2-[(2,3-dihydroxypropyl)amino]-1,1-dimethyl-2-oxoethyl}benzamide]
230 to 231 °C | CC(C)(C#N)c1ccc(C(=O)Nc2cn3cc(C(F)(F)F)ccc3n2)cc1 [Example 455, 4-(1-cyano-1-methylethyl)-N-[6-(trifluoromethyl)imidazo[1,2-a]pyridin-2-yl]benzamide]
152 to 153 °C | CC(C)(CCO)c1ccc(C(=O)Nc2cn3cc(C(F)(F)F)ccc3n2)cc1 [Example 459, 4-(3-hydroxy-1,1-dimethylpropyl)-N-[6-(trifluoromethyl)imidazo[1,2-a]pyridin-2-yl]benzamide]
227 to 229 °C | CC(C)(CO)c1ccc(C(=O)Nc2cn3cc(C(F)(F)F)ccc3n2)cc1 [Example 461, 4-(2-hydroxy-1,1-dimethylethyl)-N-[6-(trifluoromethyl)imidazo[1,2-a]pyridin-2-yl]benzamide]
275 to 277 °C | Cn1cc(-c2ccc3nc(NC(=O)c4ccc(C(C)(C)CO)cc4)cn3c2)cn1 [Example 462, 4-(2-hydroxy-1,1-dimethylethyl)-N-[6-(1-methyl-1H-pyrazol-4-yl)imidazo[1,2-a]pyridin-2-yl]benzamide]
182 to 184 °C | CC(C)(CCO)c1ccc(C(=O)Nc2cn3cc(Cl)ccc3n2)cc1 [Example 467, N-(6-chloroimidazo[1,2-a]pyridin-2-yl)-4-(3-hydroxy-1,1-dimethylpropyl)benzamide]

Second part, the compound before the results:

Structure (SMILES) | melting point
CNCCNc1ccc2nc(NC(=O)c3ccc(C(C)(C)C)cc3)cn2n1 [Example 172, 4-tert-butyl-N-(6-{[2-(methylamino)ethyl]amino}imidazo[1,2-b]pyridazin-2-yl)benzamide] | 200 to 201 °C
Cn1cc(-c2ccc3nc(NC(=O)c4ccc(C(C)(C)C)nc4)cn3n2)cn1 [Example 176, 6-tert-butyl-N-[6-(1-methyl-1H-pyrazol-4-yl)imidazo[1,2-b]pyridazin-2-yl]nicotinamide] | 251 to 252 °C
CC(C)(CCc1noc(=O)[nH]1)c1ccc(C(=O)Nc2cn3cc(-n4ccnc4)ccc3n2)cc1 [Example 437, 4-[1,1-dimethyl-3-(5-oxo-4,5-dihydro-1,2,4-oxadiazol-3-yl)propyl]-N-[6-(1H-imidazol-1-yl)imidazo[1,2-a]pyridin-2-yl]benzamide] | 283 to 284 °C
Cc1ccc2nc(NC(=O)c3ccc(C(C)(C)CCc4nnn[nH]4)cc3)cn2c1 [Example 439, 4-[1,1-dimethyl-3-(1H-tetrazol-5-yl)propyl]-N-(6-methylimidazo[1,2-a]pyridin-2-yl)benzamide] | 245 to 246 °C
Cc1ccc2nc(NC(=O)c3ccc(C(C)(C)CCc4noc(=O)[nH]4)cc3)cn2c1 [Example 440, 4-[1,1-dimethyl-3-(5-oxo-4,5-dihydro-1,2,4-oxadiazol-3-yl)propyl]-N-(6-methylimidazo[1,2-a]pyridin-2-yl)benzamide] | 267 to 268 °C
CC(C)(CCC#N)c1ccc(C(=O)Nc2cn3cc(C(F)(F)F)ccc3n2)cc1 [Example 445, 4-(3-cyano-1,1-dimethylpropyl)-N-[6-(trifluoromethyl)imidazo[1,2-a]pyridin-2-yl]benzamide] | 233 to 234 °C
CC(C)(CCc1noc(=O)[nH]1)c1ccc(C(=O)Nc2cn3cc(C(F)(F)F)ccc3n2)cc1 [Example 447, 4-[1,1-dimethyl-3-(5-oxo-4,5-dihydro-1,2,4-oxadiazol-3-yl)propyl]-N-[6-(trifluoromethyl)imidazo[1,2-a]pyridin-2-yl]benzamide] | 268 to 270 °C
CC(C)(CNC(=O)Cc1cnc[nH]1)c1ccc(C(=O)Nc2cn3cc(Cl)ccc3n2)cc1 [Example 451, N-(6-chloroimidazo[1,2-a]pyridin-2-yl)-4-{2-[(1H-imidazol-5-ylacetyl)amino]-1,1-dimethylethyl}benzamide] | 270 °C (dec.)
CC(C)(CNC(=O)c1c[nH]cn1)c1ccc(C(=O)Nc2cn3cc(C(F)(F)F)ccc3n2)cc1 [Example 456, N-[2-methyl-2-(4-{[6-(trifluoromethyl)imidazo[1,2-a]pyridin-2-yl]carbamoyl}phenyl)propyl]-1H-imidazole-4(5)-carboxamide] | 174 to 176 °C
CC(C)(CNC(=O)c1ncc[nH]1)c1ccc(C(=O)Nc2cn3cc(C(F)(F)F)ccc3n2)cc1 [Example 457, N-[2-methyl-2-(4-{[6-(trifluoromethyl)imidazo[1,2-a]pyridin-2-yl]carbamoyl}phenyl)propyl]-1H-imidazole-2-carboxamide] | 292 to 293 °C
CC(C)(CNC(=O)Cc1cnc[nH]1)c1ccc(C(=O)Nc2cn3cc(C(F)(F)F)ccc3n2)cc1 [Example 458, 4-{2-[(1H-imidazol-5-ylacetyl)amino]-1,1-dimethylethyl}-N-[6-(trifluoromethyl)imidazo[1,2-a]pyridin-2-yl]benzamide] | 261 to 263 °C
CC(C)(CO)c1ccc(C(=O)Nc2cn3cc(-c4cn[nH]c4)ccc3n2)cc1 [Example 464, 4-(2-hydroxy-1,1-dimethylethyl)-N-[6-(1H-pyrazol-4-yl)imidazo[1,2-a]pyridin-2-yl]benzamide] | 293 to 296 °C
CC(C)(CO)c1ccc(C(=O)Nc2cn3cc(-c4ccoc4)ccc3n2)cc1 [Example 465, N-[6-(3-furyl)imidazo[1,2-a]pyridin-2-yl]-4-(2-hydroxy-1,1-dimethylethyl)benzamide] | 246 to 248 °C
CC(C)(CO)c1ccc(C(=O)Nc2cn3cc(-c4ccsc4)ccc3n2)cc1 [Example 466, 4-(2-hydroxy-1,1-dimethylethyl)-N-[6-(3-thienyl)imidazo[1,2-a]pyridin-2-yl]benzamide] | 250 to 252 °C
CC(C)(CCO)c1ccc(C(=O)Nc2cn3cc(-n4ccnc4)ccc3n2)cc1 [Example 468, 4-(3-hydroxy-1,1-dimethylpropyl)-N-[6-(1H-imidazol-1-yl)imidazo[1,2-a]pyridin-2-yl]benzamide] | 225 to 227 °C
CC(C)(C)c1ccc(C(=O)Nc2cn3cc(-n4cncn4)ccc3n2)cc1 [Example 469, 4-tert-butyl-N-[6-(1H-1,2,4-triazol-1-yl)imidazo[1,2-a]pyridin-2-yl]benzamide] | 274 to 276 °C

From patent US20100029619A1, “FUSED HETEROCYCLIC COMPOUND” (TAKEDA PHARMACEUTICAL COMPANY LIMTED, priority 2006, published 2010)
